Experimental data as given in the supplement of paper PMC10307832.

These cell lines were tested with CC(C)C[C@H](NC(=O)[C@H](CCc1ccccc1)NC(=O)CN1CCOCC1)C(=O)N[C@@H](Cc1ccccc1)C(=O)N[C@@H](CC(C)C)C(=O)[C@@]1(C)CO1 [Carfilzomib] + CS(=O)(=O)N1CCN(Cc2cc3nc(-c4cccc5[nH]ncc45)nc(N4CCOCC4)c3s2)CC1 [Pictilisib] (partner 1 µM) (assay: relative viability (nuclei count vs DMSO), 5 days (fraction); higher = more cells survive). Conditions: first compound 0.001 µM.
How it was run: (§1)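 Lung cancer cell lines were pin-tool dosed in 1536-well plates on the day after seeding, with either a lone drug or a fixed anchor-drug dose plus five library-drug doses (not always all listed) in √10 steps. Nuclei were counted on 4× images after 5 days. Relative viability is the ratio of treated-well to vehicle-well nuclei counts, with each value a median of duplicate plates.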
Cell Line PC-3 [JPC-3] has a relative viability of 0.782. In the case of PC-14, the relative viability is reported as 0.55. In the case of RERF-LC-KJ, the relative viability is reported as 0.528. SK-LU-1 was tested, and the relative viability was 0.518. SW 1573 was tested, and the relative viability was 0.517. Work on UMC-11 yielded a relative viability of 0.608.

Same assay, conditions: first compound 0.003162 µM
For PC-3 [JPC-3], the relative viability was 0.747. Cell Line PC-14 has a relative viability of 0.816. RERF-LC-KJ showed a relative viability of 0.469. With SK-LU-1 the relative viability was 0.653. With SW 1573 the relative viability was 0.512. UMC-11 showed a relative viability of 0.956.

Same assay, conditions: first compound 0.01 µM
PC-3 [JPC-3] showed a relative viability of 0.677. PC-14 showed a relative viability of 0.364. For RERF-LC-KJ, the relative viability was 0.675. Cell Line SK-LU-1 has a relative viability of 0.541. Cell Line SW 1573 has a relative viability of 0.404. With UMC-11 the relative viability was 0.778.

Same assay, conditions: first compound 0.03162 µM
PC-3 [JPC-3] showed a relative viability of 0.707. In the case of PC-14, the relative viability is reported as 0.0334. With RERF-LC-KJ the relative viability was 0.265. SK-LU-1 was tested, and the relative viability was 0.201. SW 1573 gave a relative viability of 0.277. Work on UMC-11 yielded a relative viability of 0.648.

Same assay, conditions: first compound 0.1 µM
PC-3 [JPC-3] showed a relative viability of 0.259. With PC-14 the relative viability was 0.0646. For RERF-LC-KJ, the relative viability was 0.149. With SK-LU-1 the relative viability was 0.15. For SW 1573, the relative viability was 0.0513. UMC-11 showed a relative viability of 0.336.

Each cell line was assayed with O=C(c1cc(Cc2n[nH]c(=O)c3ccccc23)ccc1F)N1CCN(C(=O)C2CC2)CC1 [Olaparib] + Cc1nc(Nc2ncc(C(=O)Nc3c(C)cccc3Cl)s2)cc(N2CCN(CCO)CC2)n1 [Dasatinib] (partner 0.075 µM) in the same assay as above. Conditions: first compound 0.08 µM.
How it was run: as §1
PC-3 [JPC-3] was tested, and the relative viability was 1.08. With PC-14 the relative viability was 0.333. Work on RERF-LC-KJ yielded a relative viability of 0.891. SK-LU-1 was tested, and the relative viability was 0.197. SW 1573 was tested, and the relative viability was 0.698. For UMC-11, the relative viability was 0.464.

Same assay, conditions: first compound 0.253 µM
With PC-3 [JPC-3] the relative viability was 0.902. PC-14 showed a relative viability of 0.231. For RERF-LC-KJ, the relative viability was 0.81. SK-LU-1 was tested, and the relative viability was 0.159. With SW 1573 the relative viability was 0.456. For UMC-11, the relative viability was 0.47.

Same assay, conditions: first compound 2.53 µM
For PC-3 [JPC-3], the relative viability was 1.01. PC-14 was tested, and the relative viability was 0.311. Cell Line RERF-LC-KJ has a relative viability of 0.858. SK-LU-1 was tested, and the relative viability was 0.181. SW 1573 showed a relative viability of 0.504. UMC-11 gave a relative viability of 0.452.

Same assay, conditions: first compound 8 µM
PC-3 [JPC-3] gave a relative viability of 0.895. In the case of PC-14, the relative viability is reported as 0.205. With RERF-LC-KJ the relative viability was 0.8. SK-LU-1 was tested, and the relative viability was 0.161. Work on SW 1573 yielded a relative viability of 0.354. With UMC-11 the relative viability was 0.396.

These cell lines were tested with CC(C)C[C@H](NC(=O)[C@H](CCc1ccccc1)NC(=O)CN1CCOCC1)C(=O)N[C@@H](Cc1ccccc1)C(=O)N[C@@H](CC(C)C)C(=O)[C@@]1(C)CO1 [Carfilzomib] + CC(C)C[C@H](NC(=O)[C@H](Cc1ccccc1)NC(=O)c1cnccn1)B(O)O [Bortezomib] (partner 0.002 µM) in the same assay as above. Conditions: first compound 0.001 µM.
How it was run: as §1
PC-3 [JPC-3] was tested, and the relative viability was 0.864. PC-14 showed a relative viability of 0.888. For RERF-LC-KJ, the relative viability was 0.994. For SK-LU-1, the relative viability was 0.878. SW 1573 was tested, and the relative viability was 0.986. For UMC-11, the relative viability was 0.66.

Same assay, conditions: first compound 0.003162 µM
With PC-3 [JPC-3] the relative viability was 0.767. Work on PC-14 yielded a relative viability of 0.963. With RERF-LC-KJ the relative viability was 1.05. SK-LU-1 gave a relative viability of 1.19. Cell Line SW 1573 has a relative viability of 0.959. For UMC-11, the relative viability was 0.887.

Same assay, conditions: first compound 0.01 µM
Cell Line PC-3 [JPC-3] has a relative viability of 0.581. Cell Line PC-14 has a relative viability of 0.494. RERF-LC-KJ showed a relative viability of 0.926. Work on SK-LU-1 yielded a relative viability of 0.797. In the case of SW 1573, the relative viability is reported as 0.546. Cell Line UMC-11 has a relative viability of 0.701.

Same assay, conditions: first compound 0.03162 µM
With PC-3 [JPC-3] the relative viability was 0.245. Work on PC-14 yielded a relative viability of 0.0957. RERF-LC-KJ showed a relative viability of 0.47. Work on SK-LU-1 yielded a relative viability of 0.195. SW 1573 showed a relative viability of 0.114. For UMC-11, the relative viability was 0.533.

Same assay, conditions: first compound 0.1 µM
In the case of PC-3 [JPC-3], the relative viability is reported as 0.147. PC-14 showed a relative viability of 0.0938. For RERF-LC-KJ, the relative viability was 0.258. Work on SK-LU-1 yielded a relative viability of 0.237. With SW 1573 the relative viability was 0.0592. Cell Line UMC-11 has a relative viability of 0.179.

These cell lines were tested with CC(C)C[C@H](NC(=O)[C@H](CCc1ccccc1)NC(=O)CN1CCOCC1)C(=O)N[C@@H](Cc1ccccc1)C(=O)N[C@@H](CC(C)C)C(=O)[C@@]1(C)CO1 [Carfilzomib] + CS(=O)(=O)CCNCc1ccc(-c2ccc3ncnc(Nc4ccc(OCc5cccc(F)c5)c(Cl)c4)c3c2)o1 [Lapatinib] (partner 2 µM) in the same assay as above. Conditions: first compound 0.001 µM.
How it was run: as §1
Work on PC-3 [JPC-3] yielded a relative viability of 0.42. Cell Line PC-14 has a relative viability of 0.372. RERF-LC-KJ showed a relative viability of 0.845. With SK-LU-1 the relative viability was 0.931. With SW 1573 the relative viability was 1.17. UMC-11 was tested, and the relative viability was 0.857.

Same assay, conditions: first compound 0.003162 µM
In the case of PC-3 [JPC-3], the relative viability is reported as 0.455. Cell Line PC-14 has a relative viability of 0.301. Work on RERF-LC-KJ yielded a relative viability of 0.836. In the case of SK-LU-1, the relative viability is reported as 0.944. SW 1573 gave a relative viability of 1.22. UMC-11 was tested, and the relative viability was 1.02.

Same assay, conditions: first compound 0.01 µM
PC-3 [JPC-3] gave a relative viability of 0.463. With PC-14 the relative viability was 0.317. RERF-LC-KJ gave a relative viability of 0.894. Work on SK-LU-1 yielded a relative viability of 0.729. Cell Line SW 1573 has a relative viability of 1.04. UMC-11 gave a relative viability of 0.783.

Same assay, conditions: first compound 0.03162 µM
In the case of PC-3 [JPC-3], the relative viability is reported as 0.435. With PC-14 the relative viability was 0.301. Cell Line RERF-LC-KJ has a relative viability of 0.841. In the case of SK-LU-1, the relative viability is reported as 0.127. For SW 1573, the relative viability was 1.03. Work on UMC-11 yielded a relative viability of 0.509.

Same assay, conditions: first compound 0.1 µM
Cell Line PC-3 [JPC-3] has a relative viability of 0.209. PC-14 showed a relative viability of 0.0926. RERF-LC-KJ gave a relative viability of 0.378. In the case of SK-LU-1, the relative viability is reported as 0.191. SW 1573 gave a relative viability of 0.121. Cell Line UMC-11 has a relative viability of 0.182.
